Assay results: patent publication US6555550B1, “Musarinic agonists and antagonists” (UCB, S. A.,, priority 1998, dated 2003)

What was measured:
Female CD-1 mice [1] = assay: Tail-flick assay; assay type: in vivo; settings: injection, % MPE, 10-second cut-off; for ED50: Mus musculus
Excerpt: The tail flick assay is a commonly used animal model of analgesia. It is a stringent enough assay such that opiates (e.g., morphine) show activity in this model, whereas the non-steroidal antiinflammatories (NSAD's) such as ibuprofen are ineffective. As such, it is a useful assay system for investigating the utility of novel compounds for the treatment of severe and chronic pain.
Female CD-1 mice, weighing 20-30 grams were obtained from Charles River laboratories (Wilmington, Mass., USA). A commercially available tail-flick analgesia meter was used (Model TF-6 Analgesia Meter, Emdie Instrument Co., Maidens, Va.). […] A 10-second cut-off time was used as the maximum latency to avoid damage to the mice tails. The latency of each mouse (a mean of two separate test results for each time-point), was obtained at 0 (immediately prior to dosing), 5, 15, 30, and 60 min. time-points after injection of compounds and the % Maximum Possible Effect (% MPE) was calculated by using the formula, % MPE=[(postdrug latency−predrug latency)÷(cutoff time−predrug latency)]×100.

Female CD-1 mice [2] = assay: Body temperature (rectal probe); assay type: in vivo; settings: at tail-flick ED50 dose; core temperature
Procedure: At ambient temperature, a temperature probe (type T Thermocouple Thermometer, BAT-10; Physitemp Inc., Clifton, N.J.) was inserted 1.0 cm into the rectum of mice to measure their core temperature and recorded at 0 (before drug as a control baseline), 10, 25 and 55 min after injection of compounds.

Female CD-1 mice [3] = assay: Sedation by visual inspection; assay type: in vivo; settings: at tail-flick ED50 dose
Excerpt: Sedation was noted by close visual inspection of the animal.

cloned human M4 mAChRs = biological target: T1, cloned human M4 mAChRs (Homo sapiens, UniProt P08173); assay: Binding to cloned human M4 mAChRs expressed in CHO-Kl cells; settings: 2.5 nM 3H-oxotremorine M, CHO-Kl M4 membranes, pH 7
T1 construct: expressed in transfected cells; host or cells: CHO-K1 cells (membrane preparation)
T1 sequence (P08173 1-479): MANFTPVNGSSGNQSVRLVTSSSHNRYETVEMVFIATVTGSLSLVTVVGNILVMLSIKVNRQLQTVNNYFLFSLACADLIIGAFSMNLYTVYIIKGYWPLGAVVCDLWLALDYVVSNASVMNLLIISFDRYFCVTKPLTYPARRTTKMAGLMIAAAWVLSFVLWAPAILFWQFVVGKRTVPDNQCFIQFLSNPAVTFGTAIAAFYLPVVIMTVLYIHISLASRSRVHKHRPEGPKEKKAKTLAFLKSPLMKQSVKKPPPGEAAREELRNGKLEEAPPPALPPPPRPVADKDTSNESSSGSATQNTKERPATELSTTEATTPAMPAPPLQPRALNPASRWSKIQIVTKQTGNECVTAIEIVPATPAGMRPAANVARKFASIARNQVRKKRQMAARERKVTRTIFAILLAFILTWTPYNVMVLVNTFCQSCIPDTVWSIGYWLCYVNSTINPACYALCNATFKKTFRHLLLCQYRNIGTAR
Procedure: Binding to Cloned Human M4 […] Expressed in CHO-Kl Cells
The following protocol was used to detect binding to cloned human M4 mAChRs expressed in CHO-Kl cells.
A membrane preparation was made from CHO-Kl cells expressing human M4 mAChRs. Aliquots of membrane were stored at −70° C. until thawed on the day of assay. For each assay, CHO-Kl M4 membrane preparation (approximately 20 μg of protein) was incubated with test compound and 2.5 nM ^3H-oxotremorine M (DuPont, NEN) in 20 mM HEPES buffer, pH 7 in an assay volume of 200 μl. Assays were incubated in 96-well polypropylene plates for 40 minutes at room temperature. Nonspecific binding was determined in samples incubated in parallel in the presence of 10 μM atropine (Sigma) instead of test compound. The incubations were terminated by rapid vacuum filtration using a Packard plate harvester through 96-well Whatman GF/B filter plates presoaked in 0.5% polyethylenimine. The filter plate was washed rapidly four times with 0.2 ml aliquots of water. The plate was dried by placing under a heat lamp for 5 minutes. The plate was counted using a Packard scintillation counter after addition of 35 μl Microscint 20 scintillation fluid. Data were analyzed by nonlinear regression analysis.
Results from this assay are used to show the ability of compounds of this invention to bind to the agonist binding site of the muscarinic M4 receptor. Compounds which bind to this site have specific utility in the treatment of pain, schizophrenic disorders and cognitive disorders such as AD.

SMILES | Tail-Flick ED50 (Female CD-1 mice [1]) [mg/kg] | Side Effect Profile at ED50 Dose: Hypothermia (Female CD-1 mice [2]) [°C] | Side Effect Profile at ED50 Dose: Sedation (Female CD-1 mice [3]) | ED50 (Female CD-1 mice [1]) [mg/kg] | Human M4 in CHO-K1 Assay (cloned human M4 mAChRs) [nM]
CCCSc1nsnc1C1C2CC3CC1CN(C3)C2 (stereo not shown) [Cmpd 29, 3-(5-Azatricyclo[3.3.1.1<3,7>]dec-2-yl)-4-propylthio-1,2,5-thiadiazoles] | <1 | 0.5 | Very slight | – | –
CC(C)COc1nsnc1C1C2CC3CC1CN3C2 (stereo not shown) [Cmpd 38, 4-(3-Azatricyclo[3.3.1.0<3,7>]non-9-yl)-3-isobutyloxy-1,2,5-thiadiazoles] | >5 | – | – | – | –
CCCOc1nsnc1C1C2CC3CC1CN(C3)C2 (stereo not shown) [Cmpd 12, 3-(5-azatricyclo[3.3.1.1<3,7>]dec-2-yl)-4-propoxy-1,2,5-thiadiazole] | – | 1.0 | Slight | 4.5 | 0.74
CCC(C)Oc1nsnc1C1C2CC3CC1CN(C3)C2 (stereo not shown) [Cmpd 27, 3-(5-azatricyclo[3.3.1.1<3,7>]dec-2-yl)-4-(1-methyl-propoxy)-1,2,5-thiadiazoles] | >5 | 0 | No sedation | – | 1.55
C1CC1COc1nsnc1C1C2CC3CC1CN(C3)C2 (stereo not shown) [Cmpd 16, 3-(5-azatricyclo[3.3.1.1<3,7>]dec-2-yl)-4-(cyclopropylmethoxy)1,2,5-thiadiazole] | – | 1.5 | Sedation | 1.4 | <1.4
C(CC1CC1)Oc1nsnc1C1C2CC3CC1CN(C3)C2 (stereo not shown) [Cmpd 25, 3-(5-azatricyclo[3.3.1.1<3,7>]dec-2-yl)-4-(cyclopropylethoxy)-1,2,5-thiadiazoles] | 4.5 | 1.5 | Slight | – | –
CCCCOc1nsnc1C1C2CC3CC1CN(C3)C2 (stereo not shown) [Cmpd 13, 3-(5-azatricyclo[3.3.1.1<3,7>]dec-2-yl)-4-butoxy-1,2,5-thiadiazole] | – | – | – | – | 10
C1CC1CSc1nsnc1C1C2CC3CC1CN(C3)C2 (stereo not shown) [Cmpd 32, 3-(5-Azatricyclo[3.3.1.1<3,7>]dec-2-yl)-4-(cyclopropylmethyl)thio-1,2,5-thiadiazole] | – | <2 | Sedation | < 1 | –
CCCOc1nsnc1C1C2CC3CC1CN3C2 (stereo not shown) [Cmpd 36, 4-(3-Azatricyclo[3.3.1.0<3,7>]non-9-yl)-3-propyloxy-1,2,5-thiadiazoles] | >5 | – | – | – | 3.2
CC(C)COc1nsnc1C1C2CC3CC1CN(C3)C2 (stereo not shown) [Cmpd 18, 3-(5-azatricyclo[3.3.1.1<3,7>]dec-2-yl)-4-(2-methyl-propoxy)-1,2,5-thiadiazole] | – | 0 | No sedation | > 5 | –
Clc1nsnc1C1C2CC3CC1CN(C3)C2 (stereo not shown) [Cmpd 7, 3-(5-Azatricyclo[3.3.1.1<3,7>]dec-2-yl)-4-chloro-1,2,5-thiadiazole] | – | – | – | – | >88
CCOc1nsnc1C1C2CC3CC1CN(C3)C2 (stereo not shown) [Cmpd 23, 3-(5-azatricyclo[3.3.1.1<3,7>]dec-2-yl)-4-ethoxy-1,2,5-thiadiazoles] | 1.5 | 0.5 | No sedation | – | 0.46
CCCCOc1nsnc1C1C2CC3CC1CN(C3)C2 (stereo not shown) [Cmpd 14, 3-(5-azatricyclo[3.3.1.1<3,7>]dec-2-yl)-4-butoxy-1,2,5-thiadiazole] | – | 2.0 | Slight | > 10 | 3.8
COc1nsnc1C1C2CC3CC1CN(C3)C2 (stereo not shown) [Cmpd 21, 3-(5-azatricyclo[3.3.1.1<3,7>]dec-2-yl)-4-methoxy-1,2,5-thiadiazoles] | >5 | 0 | No sedation | – | 5.9
CCCCSc1nsnc1C1C2CC3CC1CN(C3)C2 (stereo not shown) [Cmpd 31, 3-(5-Azatricyclo[3.3.1.1<3,7>]dec-2-yl)-4-butylthio-1,2,5-thiadiazole] | – | 0 | No sedation | 0.3 | –
CCSc1nsnc1C1C2CC3CC1CN(C3)C2 (stereo not shown) [Cmpd 30, 3-(5-Azatricyclo[3.3.1.1<3,7>]dec-2-yl)-4-ethylthio-1,2,5-thiadiazole] | – | 1 | Sedation | 0.3 | –
CCOc1nsnc1C1C2CC3CC1CN3C2 (stereo not shown) [Cmpd 34, 4-(3-Azatricyclo[3.3.1.0<3,7>]non-9-yl)-3-ethoxy-1,2,5-thiadiazoles] | >2 | – | – | – | 4.6
